Results taken from US20240277890A1, “ANTIMICROBIAL ARTICLES COMPRISING POLYURETHANE” (Amicoat AS, priority 2021, published 2024).
Converted amounts (≈) assume the structure as drawn.

Columns and labels:
[1] = test system: Cryptococcus neoformans - G.R. Micro collection
[2] = test system: Staphylococcus epidermidis methicillin-resistant clinical isolate
[3] = test system: EMRSA15 Staphylococcus aureus (MRSA) - SSCmec type 4; conditions: EMRSA15 - SSCmec type 4
[4] = test system: Staphylococcus aureus ATCC 29213 - antibiotic-susceptible control strain; conditions: ATCC 29213
[5] = test system: Staphylococcus saprophyticus - antibiotic susceptible clinical isolate
[6] = test system: Morganella morganii - multi-drug resistant clinical isolate
[7] = test system: Streptococcus pyogenes - Macrolide (MLS) resistant clinical isolate
[8] = test system: Streptococcus pyogenes - Macrolide (M-type) resistance clinical isolate
[9] = test system: Enterobacter sp - antibiotic-susceptible clinical isolate
[10] = test system: EMRSA3 Staphylococcus aureus (MRSA) - SSCmec type 1; conditions: EMRSA3 - SSCmec type 1
[11] = test system: Escherichia coli - multi-drug resistant clinical isolate
[12] = test system: Propionibacterium acnes- antibiotic-susceptible clinical isolate; assay: MIC microbroth dilution (CLSI); format: cell-based; conditions: P. acnes antibiotic-susceptible
Description: Supplemented Brucella broth (SBB) was used for the anaerobic strains with an inoculum of approximately 10^6 CFU/mL. SBB is a broth consisting of 1% peptone, 0.5% ‘Lab-lemco’, 1% glucose and 0.5% sodium chloride supplemented with 5 μg/L haemin and 1 μg/L vitamin K (both obtained from Sigma Aldrich Ltd.) Yeast and filamentous fungal MIC were performed in MOPS buffered RPMI 1640 medium (MOPS buffer obtained from Sigma Aldrich Ltd., RPMI 1640 obtained from Invitrogen Ltd, Paisley, Scotland). The yeast inocula were in the range 7.5×10^2-4×10^3 CFU/mL and the filamentous fungi approximately 8×10^3-1×10^5 CFU/mL.
MICs were determined as described in Example 2.

[13] = test system: Methicillin resistant Staphylococcus epidermidis (MRSE) strain ATCC 27626; conditions: ATCC 27626
[14] = test system: Klebsiella aerogenes NCTC11228 - antibiotic-susceptible type strain
[15] = test system: Candida albicans ATCC90028 - reference strain
[16] = test system: Haemophilus influenzae - β-lactamase positive clinical isolate
[17] = test system: Trichophyton mentagrophytes - G.R. Micro collection
[18] = test system: Group G Streptococcus - macrolide-resistant clinical isolate
[19] = test system: Streptococcus pneumoniae - penicillin-susceptible clinical isolate
[20] = test system: Escherichia coli ATCC25922 - antibiotic-susceptible type strain; conditions: ATCC25922
[21] = test system: Enterococcus faecalis - ATCC 29212 antibiotic-susceptible control strain; conditions: ATCC 29212
[22] = test system: Enterobacter sp - multi-drug resistant clinical isolate
[23] = test system: Enterococcus faecalis high-level gentamicin-resistant clinical isolate
[24] = test system: P. aeruginosa
[25] = test system: Staphylococcus epidermidis antibiotic susceptible clinical isolate
[26] = test system: Enterococcus faecalis vancomycin-susceptible clinical isolate
[27] = test system: EMRSA16 Staphylococcus aureus (MRSA) - SSCmec type 2; conditions: EMRSA16 - SSCmec type 2
[28] = test system: Candida tropicalis ATCC750 - reference strain
[29] = test system: Trichophyton interdigitale - G.R. Micro collection
[30] = test system: Candida albicans ATCC24433 - reference strain
[31] = test system: Escherichia coli ATCC32518 - β-lactamase positive type strain
[32] = test system: Streptococcus agalactiae - macrolide-resistant clinical isolate
[33] = test system: Listeria monocytogenes - antibiotic-susceptible clinical isolate

CCCCCCNC(=O)[C@H](CCCNC(=N)N)NC(=O)[C@H](Cc1c(C(C)(C)C)[nH]c2c(C(C)(C)C)cc(C(C)(C)C)cc12)NC(=O)[C@@H](N)CCCNC(=N)N [Compound 8] showed an MIC [1] of 2 µg/mL (≈ 2.6 µM), an MIC [2] of 2 µg/mL (≈ 2.6 µM) and an MIC [3] of 4 µg/mL (≈ 5.21 µM). It also gave an MIC [4] of 4 µg/mL (≈ 5.21 µM), an MIC [5] of 0.5 µg/mL (≈ 0.651 µM) and an MIC [6] of 8 µg/mL (≈ 10.4 µM). The MIC [7] was 8 µg/mL (≈ 10.4 µM), the MIC [8] was 8 µg/mL (≈ 10.4 µM) and the MIC [9] was 8 µg/mL (≈ 10.4 µM). For the same compound, the MIC [10] was 4 µg/mL (≈ 5.21 µM), the MIC [11] was 8 µg/mL (≈ 10.4 µM) and the MIC [12] was 4 µg/mL (≈ 5.21 µM). The “MRSE (MIC)” value [13] was <1 µg/mL, the MIC [14] was 8 µg/mL (≈ 10.4 µM) and the MIC [15] was 4 µg/mL (≈ 5.21 µM). The MIC [16] was 4 µg/mL (≈ 5.21 µM), the MIC [17] was 4 µg/mL (≈ 5.21 µM) and the MIC [18] was 8 µg/mL (≈ 10.4 µM). The MIC [19] was 8 µg/mL (≈ 10.4 µM), the MIC [20] was 4 µg/mL (≈ 5.21 µM) and the MIC [21] was 4 µg/mL (≈ 5.21 µM). The MIC [22] was 8 µg/mL (≈ 10.4 µM), the MIC [23] was 8 µg/mL (≈ 10.4 µM) and the “P. aeruginosa (MIC)” value [24] was 5 µg/mL. The MIC [25] was 8 µg/mL (≈ 10.4 µM), the MIC [26] was 4 µg/mL (≈ 5.21 µM) and the MIC [27] was 4 µg/mL (≈ 5.21 µM). The MIC [28] was 4 µg/mL (≈ 5.21 µM), the MIC [29] was 4 µg/mL (≈ 5.21 µM) and the MIC [30] was 8 µg/mL (≈ 10.4 µM). It also gave an MIC [31] of 8 µg/mL (≈ 10.4 µM), an MIC [32] of 8 µg/mL (≈ 10.4 µM) and an MIC [33] of 8 µg/mL (≈ 10.4 µM).
